Here are results for 106 compounds from PubChem BioAssay AID1996.

Each structure is given as a SMILES string. In brackets after ≈: the same amount, converted by molar mass. Some results are limits rather than exact numbers.

For the series the following is noted: buffer; pH 7.4; 200.0 µM.
Regarding `NC(=O)C1CCN(c2ncccc2[N+](=O)[O-])CC1`, the solubility (kinetic) – broadly, solubility judged after dilution from a stock solution rather than from solid – was above 37.5 µg/mL.
`COc1ccc(NC(=O)C(C)SCc2ccccc2)cc1` (stereo unspecified) yielded a kinetic solubility of 40.9 µg/mL (≈ 136 µM).
With `Cc1cc(C(=O)NC2CCCCC2)c2cc(F)ccc2n1`, the kinetic solubility is 19.6 µg/mL (≈ 68.4 µM).
Take `Nc1cccc(NC(=O)CN2CCOCC2)c1`: the solubility (kinetic) is above 35.3 µg/mL.
On to `Cc1ccccc1-c1nc2ccccc2c(=O)n1C`, for which the kinetic solubility is 35.8 µg/mL (≈ 143 µM).
`Cn1c(=O)c2c(nc(Sc3ccccc3N)n2C)n(C)c1=O` displayed a kinetic solubility of 39.1 µg/mL (≈ 123 µM).
To `Cc1noc(COc2ccccc2OCC(N)=O)n1` belongs above 39.5 µg/mL; to `CCOC(=O)C1=C(O)/C(=C\c2ccc(O)c(OCC)c2)N=C1C`, 36.1 µg/mL (≈ 114 µM).
Consider `Nc1sc2c(c1C(=O)NC1CC1)CCCC2`, for which the solubility (kinetic) was 31 µg/mL (≈ 131 µM).
`Cc1c(NC(=S)NC(=O)c2ccc(Cl)cc2)c(=O)n(-c2ccccc2)n1C`: the kinetic solubility was above 60.1 µg/mL.
`O=C(O)CC1(CC(=O)NCc2csc(-c3cccs3)n2)CCCCC1` showed a kinetic solubility of 44.9 µg/mL (≈ 119 µM).
Consider `COc1ccc(CCNCC2CCCO2)cc1.Cl` (stereo unspecified), for which the solubility (kinetic) came to 35.2 µg/mL.
Under `COCCSc1ccccc1C(=O)Nc1ccc(Br)cc1` stands 43.1 µg/mL (≈ 118 µM); under `COc1ccc(S(=O)(=O)N2CCCc3ccccc32)cc1OC`, 28.4 µg/mL (≈ 85.2 µM); under `O=C(CNC(=O)c1ccccc1)NCC(=O)OCC(=O)c1ccccc1Cl`, 50.1 µg/mL (≈ 129 µM).
Under `Cc1ccc(-c2ncns2)cc1` stands 0.5 µg/mL (≈ 2.84 µM).
`O=C1CCc2cc(S(=O)(=O)Nc3ccccc3F)ccc2N1` yielded a solubility (kinetic) above 48.1 µg/mL.
`CCCC(=O)NC(c1ccc(C(C)C)cc1)c1ccc2cccnc2c1O` (stereo unspecified) gave a kinetic solubility below 0.4 µg/mL.
In turn, `O=C(COC(=O)/C=C/c1ccc(F)cc1)NCc1ccc2c(c1)OCO2` registered a solubility (kinetic) of 4.9 µg/mL (≈ 13.7 µM).
Take `CCn1c(SCC(=O)Nc2ccc(C)cc2)nc(O)cc1=O`: the kinetic solubility is above 47.9 µg/mL.
Consider `Cc1ccc(N2CC(C(=O)Nc3cc(C)on3)CC2=O)c(C)c1` (stereo unspecified), for which the solubility (kinetic) is above 47 µg/mL.
In the case of `CCOC(=O)c1c(C)[nH]c(C(=O)OCc2ccc(F)cc2)c1C`, the solubility (kinetic) amounted to 2 µg/mL (≈ 6.26 µM).
Compound `COc1ccc(N2CCN(C(=O)COC(=O)c3cccc(OC)c3O)CC2)cc1` displayed a solubility (kinetic) of 7.2 µg/mL (≈ 18 µM). Compared with the last compound, the solubility kinetic is about 3.6-fold higher.
Compound `Cc1ccc(CNC(=O)Nc2ccccc2)n1C` gave a kinetic solubility of 31.6 µg/mL (≈ 130 µM). This solubility kinetic lies about 4.4-fold higher than the previous one.
`O=C(NCc1cccnc1)Nc1ccc(Cl)cc1Cl` returned a kinetic solubility above 44.4 µg/mL.
For the compound `Cc1cnc(NC(=O)CC(C)c2ccccc2)s1` (stereo unspecified), the solubility (kinetic) turned out to be 3 µg/mL (≈ 11.5 µM).
With `C=C(C)CN(CC)Cc1c(C(=O)N(C)CCCC)nc2ccccn12`, the kinetic solubility is above 51.4 µg/mL.
`Cn1nc(C(C)(C)C)cc1C(=O)O` registered a solubility (kinetic) above 27.3 µg/mL.
`CC(=O)c1cccc(NC(=O)N2CCCCCC2)c1`: the kinetic solubility was above 39.1 µg/mL.
`Cc1ccccc1NC(=O)CCN1CCCC1.Cl` yielded a solubility (kinetic) above 40.3 µg/mL.
Turning to `CN1CCC(=C(c2ccccc2)c2ccc(Br)cc2)CC1.Cl`, the solubility (kinetic) worked out at 53.1 µg/mL.
`Cc1cc(C)nc(NC(=O)c2cccs2)c1` yielded a solubility (kinetic) of 22.6 µg/mL (≈ 97.3 µM).
`CC(C)c1ccc(NS(=O)(=O)c2ccc(N3C(=O)CCC3=O)cc2)cc1`: the kinetic solubility was 43.6 µg/mL (≈ 117 µM).
Regarding `Cc1ccc2cc3c(nc2c1)OCC3`, the kinetic solubility was above 27.8 µg/mL.
To `COc1ccc(NC(=S)/N=C(\N)Nc2nc(C)c3ccccc3n2)cc1` belongs 0.7 µg/mL (≈ 1.91 µM).
For `Nc1c2c(nc3cccc(Cl)c13)N(c1ccccc1)CC2`, the kinetic solubility came out at 0.9 µg/mL (≈ 3.04 µM). This solubility kinetic and that of the compound before are within 1.5-fold of each other.
For `COC(=O)CN1C(=O)COc2ccc(S(=O)(=O)N3CCCCCC3)cc21`, the solubility (kinetic) turned out to be 52.4 µg/mL (≈ 137 µM).
On to `CN(c1ccccc1)S(=O)(=O)c1cccc2ccccc12`, for which the kinetic solubility came to 2.2 µg/mL (≈ 7.4 µM).
`CN(CC(=O)Nc1ccc(Cl)c(C(F)(F)F)c1)C(=O)COC(=O)C1CC2CCCC(C1)C2=O` (stereo unspecified): the solubility (kinetic) was 59.2 µg/mL (≈ 121 µM).
Regarding `O=C(Nc1ccccc1)NC1CCN(Cc2c(F)cccc2Cl)CC1`, the kinetic solubility turned out to be 6.8 µg/mL (≈ 18.8 µM).
In turn, `O=C1c2ccccc2C2(c3ccccc3)NCCCN12` (stereo unspecified) had a solubility (kinetic) above 39.6 µg/mL.
Compound `COCCSc1ccccc1C(=O)N1CCc2ccccc2C1` registered a solubility (kinetic) above 49.1 µg/mL.
`CC1(C)CC(CCN)(Cc2ccccc2Cl)CCO1` (stereo unspecified): the solubility (kinetic) came out at 37.7 µg/mL (≈ 134 µM).
Regarding `COc1c(C)cc(S(=O)(=O)N2CCOCC2)c(C)c1C`, the solubility (kinetic) is above 44.9 µg/mL.
In turn, `Cc1ccc(O)c(CNc2cccc(C)n2)c1` yielded a kinetic solubility of 22.5 µg/mL (≈ 98.6 µM).
Turning to `CSc1ccc(CN2CCN(C(=O)Cc3ccccc3)CC2)cc1`, the solubility (kinetic) was 28.9 µg/mL (≈ 84.9 µM).
To `COc1ccccc1CNC(=O)c1sccc1C` belongs 26.6 µg/mL (≈ 102 µM); to `C=CCn1cc(C(=O)OCC)c(=O)c2ccc(F)cc21`, 40.2 µg/mL (≈ 146 µM).
As for `COc1ccc(S(=O)(=O)N2CCOCC2)cc1NS(=O)(=O)c1ccc(F)c(F)c1`, the solubility (kinetic) was above 67.3 µg/mL.
`CCOc1ccc(C(=O)NCCN2CCCCC2)c(OCC)c1` yielded a solubility (kinetic) above 48.1 µg/mL.
To `CCOC(=O)NC(=S)Nc1ccc(OC)cc1` belongs 25.6 µg/mL (≈ 101 µM); to `Cc1ccc2c(CN3CCOCC3)cc(=O)oc2c1C`, above 41 µg/mL.
In turn, `Cc1nc(SCC(N)=O)c(C#N)c(C)c1C` displayed a kinetic solubility of 4.4 µg/mL (≈ 18.7 µM).
Take `O=S(=O)(NC1=NCCCCC1)c1ccc(F)cc1F`: the solubility (kinetic) was above 43.2 µg/mL.
`COc1ccc2[nH]cc(CCNCc3cccnc3)c2c1.Cl` gave a solubility (kinetic) of 46.2 µg/mL.
For the compound `COC(=O)C1(NC(=O)NC2CCCCC2)CCCCC1`, the solubility (kinetic) is above 42.4 µg/mL.
In turn, `Cc1ccccc1NC(=O)c1c(C)cc(=O)oc1C` registered a solubility (kinetic) above 38.6 µg/mL.
`N#Cc1c(F)cccc1NCc1cccs1`: the solubility (kinetic) was determined as 1.3 µg/mL (≈ 5.6 µM).
On to `CC(=O)Nc1ccc(NS(=O)(=O)c2ccc(Cl)s2)cc1`, for which the solubility (kinetic) was above 49.6 µg/mL.
In the case of `CCOc1ccc(NC(=O)NCCCCc2ccccc2)cc1`, the kinetic solubility is 0.4 µg/mL (≈ 1.28 µM).
To `Cc1ccc(C(=O)C(C)OC(=O)Cc2c[nH]c3ccccc23)cc1` (stereo unspecified) belongs 7.2 µg/mL (≈ 22.4 µM); to `CC1CCCC(C)N1C(=O)COC(=O)c1ccc(Br)c(S(=O)(=O)N2CCOCC2)c1` (stereo unspecified), 74.2 µg/mL (≈ 147 µM); to `Cc1onc(-c2ccccc2)c1-c1nc2cc(Cl)ccc2c(=O)o1`, 3.7 µg/mL (≈ 10.9 µM).
To `COc1cc(NC(=O)c2ccccc2)c(OC)cc1NC(=O)Cc1ccc(F)cc1` belongs below 0.4 µg/mL.
In turn, `O=C(NC(=S)Nc1cccnc1)c1cccc(Br)c1` gave a kinetic solubility of 8.1 µg/mL (≈ 24.1 µM).
Under `CCc1ccccc1NC(=O)CN(C1CCCCC1)S(C)(=O)=O` stands above 50.8 µg/mL.
`CCc1ccc(C(=O)OCC(=O)NC2CCCC2)cc1` returned a kinetic solubility of 11.6 µg/mL (≈ 42.1 µM).
Compound `COc1cccc(NC(=S)N2CCCN(Cc3ccc(F)cc3)C2)c1` returned a solubility (kinetic) of 49.8 µg/mL (≈ 139 µM).
The compound `CC(C)(C)OC(=O)N1CCC(CNC(=O)c2ccc(F)cc2)CC1` gave a solubility (kinetic) above 50.5 µg/mL.
Turning to `COc1cc(OC)cc(C(=O)NCC(=O)NCc2ccccn2)c1`, the solubility (kinetic) is above 49.4 µg/mL.
In turn, `Cc1oncc1C(=O)Nc1cccc(C#N)c1` had a solubility (kinetic) above 34.1 µg/mL.
Regarding `CNC(=O)CSc1nc2cccnc2n1-c1ccc(F)cc1`, the solubility (kinetic) stood at 44.7 µg/mL (≈ 141 µM).
`O=C(c1ccc(S(=O)(=O)NCc2ccco2)cc1)N1CCN(c2ccccc2)CC1` showed a kinetic solubility of 9.1 µg/mL (≈ 21.4 µM).
For `COC(=O)c1ccc(CNC(=O)c2ccc3c(c2)OCCO3)cc1`, the kinetic solubility came to 45.5 µg/mL (≈ 139 µM). Against the preceding compound, the solubility kinetic is about 5-fold higher.
On to `O=C(Nc1nnc(C2=COCCO2)o1)c1cccc(F)c1`, for which the kinetic solubility is above 43.7 µg/mL.
`Cc1cc(C(=O)N2CCC(C)CC2)on1` registered a kinetic solubility above 31.2 µg/mL.
`CC(NC(=O)COC(=O)c1c[nH]c2ccccc12)c1ccccc1` (stereo unspecified) returned a solubility (kinetic) of 46.2 µg/mL (≈ 143 µM).
Regarding `CC1(C)COC(Cn2c3ccccc3c3ccccc32)O1` (stereo unspecified), the solubility (kinetic) is below 0.6 µg/mL.
As for `COC(=O)c1cn(C(=O)c2cccc(C)c2)c2ccccc12`, the solubility (kinetic) was determined as 3.9 µg/mL (≈ 13.3 µM).
To `CCCN(CC(=O)Nc1cc(Cl)ccc1Cl)C(=O)c1ccccn1` belongs above 54.9 µg/mL; to `CC(C(=O)NC1CCCC1)N1C(=O)c2cccc3cccc1c23` (stereo unspecified), above 46.3 µg/mL; to `O=C(C1CCN(S(=O)(=O)c2cccs2)CC1)N1CCCCC1`, above 51.4 µg/mL.
As to `CCc1ccc(OC(=O)c2cncc(Br)c2)cc1`, the solubility (kinetic) was 4 µg/mL (≈ 13.1 µM).
With `CC(C)CC(=O)Nc1ccc2ccccc2c1`, the solubility (kinetic) was 6.2 µg/mL (≈ 27.3 µM). Compared with the last compound, the solubility kinetic is about 1.6-fold higher.
`COc1ccc(CN(C)CC(=O)Nc2ccccc2C(=O)NC2CC2)cc1F` registered a kinetic solubility of 56 µg/mL (≈ 145 µM). Against the preceding compound, the solubility kinetic is about 9-fold higher.
The compound `O=C(COc1ccc(F)cc1Cl)NC1CCCCCC1` displayed a kinetic solubility of 28.3 µg/mL (≈ 94.4 µM).
Turning to `O=C(Nc1ccccc1)NN(C(=O)CCl)c1ccccc1`, the solubility (kinetic) was above 45.6 µg/mL.
In turn, `CCN(CC)C(=O)c1ccccc1NC(=O)c1ccccc1C` had a solubility (kinetic) above 46.6 µg/mL.
`Cc1ccc(NC(=O)C(C)N2C(=O)c3ccccc3C2=O)c(C)c1` (stereo unspecified) gave a kinetic solubility of 29.7 µg/mL (≈ 92.1 µM).
`CCOC(=O)c1c(C)[nH]c(C(=O)COC(=O)c2cccnc2Cl)c1C` gave a kinetic solubility of 4.7 µg/mL (≈ 12.9 µM).
For the compound `O=C(/C=C/c1ccc(F)cc1)NC(=S)NC1CCCCC1`, the solubility (kinetic) turned out to be 0.5 µg/mL (≈ 1.63 µM).
Compound `CCN1CNC(=S)N(c2ccccc2C)C1` yielded a kinetic solubility above 35.3 µg/mL.
In turn, `CC1CN(C(=O)c2cccs2)CC(C)O1` (stereo unspecified) displayed a kinetic solubility of 32.4 µg/mL (≈ 144 µM).
Under `Cc1csc(NC(=O)CSC2=NCCS2)n1` stands 40.5 µg/mL (≈ 148 µM); under `Cc1sc2ncnc(SCC(=O)NC(C)(C)C)c2c1C`, 19.3 µg/mL (≈ 62.4 µM).
Under `COc1ccc(CN(C)C(C)C(=O)Nc2ccc(S(=O)(=O)N3CCCCC3)cc2)c(OC)c1` (stereo unspecified) stands 6.1 µg/mL (≈ 12.8 µM); under `CCNC(=O)NC(=O)C(C)OC(=O)CCCc1nc2ccccc2s1` (stereo unspecified), 49.4 µg/mL (≈ 136 µM).
`CCCNc1nc(N2CCCC2)nc(N2CCCC2)n1` had a kinetic solubility of 33.6 µg/mL (≈ 122 µM).
Under `COc1ccc(NC(=O)c2cc(C)no2)cc1Cl` stands 7.5 µg/mL (≈ 28.1 µM); under `CCOC(=O)C1CCN(C(=O)Nc2ccc(OC(F)(F)F)cc2)CC1`, 16.1 µg/mL (≈ 44.7 µM).
Under `CC(=O)c1ccccc1OC(=O)COc1ccc([N+](=O)[O-])cc1` stands above 47.3 µg/mL; under `CCOc1ccccc1NC(=O)NCCCCc1ccccc1`, below 0.3 µg/mL; under `CC(c1ccccc1)N1C(=O)c2cccnc2C1=O` (stereo unspecified), 32.6 µg/mL (≈ 129 µM).
Compound `CCOC(=O)C1CCN(C(=O)/C(=C/c2ccccc2)NC(=O)c2ccccc2)CC1` came in with a kinetic solubility above 61 µg/mL.
Regarding `O=C1CCCc2nc3c(cc21)C(O)Oc1ccccc1-3` (stereo unspecified), the solubility (kinetic) turned out to be 19.4 µg/mL (≈ 72.6 µM).
To `CC(C)c1ccccc1NC(=S)NCCCn1ccnc1` belongs above 45.4 µg/mL.
